Data as given in patent US9724329B2, “Stimulating immune response” (Peter MacCallum Cancer Institute, priority 2010, dated 2017).
“Also recorded” adds a separate entry of the source.

Legend:
transplanted Vk*MYC MM = assay: Transplanted Vk*MYC myeloma model in mice: survival, paraproteinaemia (M-spike), serum immunoglobulin; format: in vivo, mouse; details: for efficacy against Vk*MYC MM in vivo (progression): FIG. 8d, lenalidomide 100 mg/kg, NMP, saline control
Method: Sublethally (6Gy) irradiated C57BL/6 mice were injected with 1×10e5 Vk*myc splenocytes derived from myelomatous mice by intravenous injection. Recipient mice were monitored by serum protein electophoresis for development of monoclonal paraproteinaemia (M-spike). The monoclonal paraprotein is a sensitive and specific marker of myeloma burden, as this protein is only produced by myeloma cells. Paraprotein estimation is a standard clinical parameter by which myeloma is monitored in human patients. Once detected, M-spikes were quantitated by densitometry (expressed as % of total serum protein). […] Mice were monitored by weekly M-spike quantification and for clinically apparent disease. Mice developing distress due to disease progression (e.g. hind limb paralysis, splenic rupture) were euthanased.
All mouse experiments were carried out in accordance with ethical guidelines determined by the Peter Mac Animal Experimental Ethics Committee. For in vivo assessment of NMP efficacy, treatment studies were performed on mice bearing transplanted Vk*MYC myeloma^2. […] To exclude the potential for adoptive transfer of immune cells with grafts into Rag2^−/−cγ^−/− mice and matched C57BL/6 recipients (FIG. 8f), freshly sorted Vk*MYC MM cells (40,000 per mouse) were used for this experiment. The onset of transplanted disease was confirmed by serum protein electrophoresis; those mice manifesting M-protein >2% of total serum protein (FIG. 8a) or >5% (remaining figures) were selected for treatment.
All dosing was performed by oral gavage using freshly prepared drug solutions or suspensions. Mice were dosed with NMP according to standard practice for drug administration using NMP/PEG as a vehicle^1. NMP (Sigma Aldrich, NSW, AUS) was diluted 1 in 10 v/v (FIG. 8a) or 1 in 5 v/v (remaining figures) in PEG300 (Sigma Aldrich, NSW, AUS) and administered by oral gavage to a final volume of 1 uL NMP per gram mouse weight.
BEZ235 was kindly provided by Novartis. According to Novartis' recommendations, BEZ235 was dissolved in NMP by heating briefly to 60° C. and further diluting 1 in 10 v/v in PEG300. Alternatively BEZ235 was suspended in 0.5% methylcellulose (MC) solution and mixed thoroughly prior to administration.
Lenalidomide was kindly provided by Celgene. Lenalidomide was suspended in 0.9% saline solution immediately prior to oral gavage at a dose of 100 mg/kg.
Treatment was continued daily for the first month, then weekdays only for the remainder of the indicated treatment period. Mice were culled with the development of features of overt myeloma, including permanent hind-limb paralysis and disseminated extramedullary disease.
Freshly obtained mouse serum was analyzed for paraproteinemia on the Sebia Hydrasys® semi-automated agarose gel electrophoresis system (Sebia, Norcross, Ga., USA). Serum M-spike densitometry quantification was performed using Phoresis software (release 4.7.2, Sebia) by a biochemist blinded to the nature of group allocation. M-spike results are expressed as a percentage of total serum protein.
For correlative quantitative immunoglobulin estimates, thawed aliquots of serum were batched for sandwich enzyme-linked immunosorbent assay (ELISA) using Igλ or IgK capture antibodies (Southern Biotech, AL, USA) and biotin/streptavidin detection by horseradish peroxidase/tetramethylbenzidine dihydrochloride substrate standardized against IgMK/IgMl isotype controls (Biolegend, CA, USA). ELISA plates were read using a VersaMax™ microplate reader and analyzed by SoftMax Pro software v 5.4 (Molecular Devices, CA, USA).

[1] = system: K562 cells (natural killer (NK) only sensitive cell line); assay: NK-cell cytotoxicity: drug-treated PBMC as effectors in chromium release assay; format: cell-based, human; details: for NK cell function / cytotoxicity (K562 lysis): 10 uM, PBMC cultured 3 days, versus untreated
Method: (§1) FIG. 10. […] (b) The anti-inflammatory potential of NMP was assessed using LPS-treated CD14+ monocytes that were isolated from healthy donor PBMC. Monocytes were treated with 10 uM NMP or lenalidomide (LEN) and 1 ug/mL LPS for 18 hr or left untreated (Unt), then supernatants were analyzed via cytokine bead array for TNFα and IL-6. (c) The polarizing effect of NMP on cytokine production from PBMC was assessed from supernatants collected after 3d drug treatment. Levels of IL-2, IL-4 and IL-10 were analyzed by cytokine bead array. (d) NK-cell cytotoxicity was assessed by culturing healthy donor PBMC in the presence of 10 uM NMP, 10 uM lenalidomide, or as media alone (Unt). Cells harvested after 3d were washed and used as effectors in chromium release assays against the NK-only sensitive cell line, K562 at an effector ratio of 50:1. […] Data are presented as mean+/−SEM. NS, not statistically significant. (p≧0.05), *p<0.05
Healthy donor peripheral blood mononuclear cells (PBMC) were cultured for 3 days in RPMI-1640 and 10% FCS in the presence of 10 uM NMP, 10 uM Len (positive control) or no drugs. After 3 days the cells were harvested and used as effectors in a standard 4 hr chromium release assay, using K562 as targets (natural killer (NK) only sensitive cell line) (n=3).
BEZ235 and lenalidomide were dissolved in dimethylsulfoxide (DMSO) as 10 mM stock solutions and further diluted in media to final concentrations as specified in figure legends. The final concentration of DMSO was not greater than 0.1% v/v in any assay.

[2] = system: peripheral blood mononuclear cells (PBMC); assay: Cytokine production of PBMC (cytokine bead array); format: cell-based, human; details: for cytokine secretion profile (Th): FIG. 10c, 3d drug treatment
Method: PBMC were cultured for 3 days in RPMI-1640 and 10% FCS in the presence of 10 uM NMP, 10 uM Len or no drugs. After 3 days, supernatants were collected and a cytokine bead array performed via the Luminex instrument to analyze changes in IL-2, IL-4 and IL-10 production (n=3).
(§2) Supernatants from cultured cells or serum from VK*MYC mice were used to assess the level of individual cytokines (as specified in the methods and results section) via the Luminex cytokine bead array system. The assay was conducted according to the manufacturer instructions. Briefly, pre-mixed beads were added to 25 uL of undiluted supernatant/serum, followed by the addition of detection antibodies and streptavidin in 96 well filtered-membrane plates. The plates were run on the Luminex 200 instrument and data analysed with the xPONENT software.

PBMC [3] = assay: Immune cell subset composition of cultured PBMC; format: cell-based, human; details: 10 uM, 3 days
Method: PBMC were cultured in RPMI-1640 and 10% FCS for 3 days in the presence of either 10 uM NMP, 10 uM Len or no drugs. At day 3 the cells were harvested and stained for T cell markers (CD4 and CD8), NK markers (CD3−, CD56) and regulatory T cells (CD3, CD4, CD25, CD127low). For controls, day 0 PBMC were stained to assess changes in cellular subsets after 3 days (n=3).

CD14+ monocytes = assay: Inflammatory cytokine secretion by LPS-treated CD14+ monocytes; format: cell-based, human; details: 10 uM; for IL-6 secretion / TNFα secretion: FIG. 10b, 1 ug/mL LPS, 18 hr
Method: as §1
CD14+ monocytes were sorted via the Dynal bead kit from PBMC. The cells were then treated with LPS to induce cytokine production, and cultured overnight in the presence of 10 uM NMP, 10 uM Len or no drugs. As background controls, non LPS stimulated monocytes were used. The supernatants were harvested and IL-1beta, GM-CSF, IL-6 and TNF-alpha analyzed via the Luminex beady array assay (n=3).
as §2

U266 cells = assay: Expression of NKG2D and DNAM-1 ligands on myeloma cells (flow cytometry); format: cell-based, human; details: 10 uM, 48 hrs; FIG. 10f
[4] = system: LPS induced inflammation and shock; assay: LPS challenge, serum cytokines in non-tumor bearing mice; format: in vivo, mouse; details: FIG. 8c; serum 4 hours after LPS; NMP 1 uL/g po, lenalidomide 2 x 100 mg/kg po
Method: as §2
For LPS challenges, non-tumor bearing C57BL/6 mice were administered LPS (E. Coli 0127:B8, gamma-irradiated; Sigma) 1 mg/30 g mouse weight by intraperitoneal injection. NMP (1 uL/g mouse weight in PEG, po) was administered 4 hours prior to LPS. Lenalidomide was administered in 2 doses of 100 mg/kg po 24 and 4 hours prior to LPS. Serum was obtained 4 hours after LPS challenge and analyzed for cytokine content by bead array.

[5] = system: PI3K/mTOR phosphorylation targets; assay: PI3K/mTOR phosphorylation targets in vivo; details: in vivo (not shown)
PBMC [6] = assay: Direct cytotoxicity, Annexin V and 7aad flow cytometry, PBMC; format: cell-based, human; details: NMP 0 uM, 1 uM, 10 uM, 100 uM or 10 mM, 48 hours
Method: (§3) PBMC and a myeloma cell line (U266) were cultured in RPMI-1640 with 10% FCS in the presence of NMP (0 uM, 1 uM, 10 uM, 100 uM or 10 mM) for 48 hours. The cells were stained with viability markers (Annexin V and 7aad) and analyzed on the flow cytometer (n=2).

myeloma cell line (U266) = assay: Direct cytotoxicity, Annexin V and 7aad flow cytometry, U266; format: cell-based, human; details: NMP 0 uM, 1 uM, 10 uM, 100 uM or 10 mM, 48 hours
Method: as §3

Vk*MYC MM bearing mice = assay: Serum cytokines in MM bearing mice; format: in vivo, mouse; details: FIG. 8e; one week of treatment, versus SAL
Method: as §2
For cytokine assessment in MM bearing mice, mice were treated daily for 7d with NMP or SAL, and serum collected 4 hours after the last dose.

[7] = bacterial and mammalian tests; cited from earlier work
[8] = rats, long-term exposure via inhalation or diet; cited from earlier work
[9] = rats, in the diet; cited from earlier work
[10] = in vivo; cited from earlier work

## Cn1c(=O)n(-c2ccc(C(C)(C)C#N)cc2)c2c3cc(-c4cnc5ccccc5c4)ccc3ncc21 [BEZ235, reference compound]
Transplanted Vk*MYC MM; FIG. 8a, BEZ235 25 mg/kg/d concurrent with NMP/PEG, n=6
  median survival: 42.5 days
Transplanted Vk*MYC MM; FIG. 8a, BEZ235 in MC vehicle
  effect on disease progression: minimal effect
Transplanted Vk*MYC MM; FIG. 8a, BEZ235 in MC vehicle, n=8
  median survival: 47.5 days
Transplanted Vk*MYC MM; FIG. 8a, BEZ235 with NMP/PEG
  effect of concurrent administration on the therapeutic effect of NMP: antagonized
[1]; BEZ235 250 nM with NMP, FIG. 10e
  effect of co-treatment on NMP-induced NK-cell lysis: inhibited; also recorded: downregulated

## Nc1cccc2c1CN(C1CCC(=O)NC1=O)C2=O (stereo not shown) [Lenalidomide, reference compound]
Transplanted Vk*MYC MM
  efficacy against Vk*MYC MM in vivo (progression): poor efficacy
Transplanted Vk*MYC MM; listed as lenalidomide
  efficacy against Vk*MYC MM in vivo (progression): minimal effects
[1]
  NK cell function / cytotoxicity (K562 lysis): enhanced
[2]; 10 uM, 3 days
  IL-2 production: without altering
[2]
  cytokine secretion profile (Th): away from a Th-2 profile
PBMC [3]
  proportions of immune cell subtypes (CD4, CD8, NK, regulatory T cells): without altering
CD14+ monocytes
  IL-6 secretion: suppressed
  TNFα secretion: suppressed
U266 cells
  expression of NKG2D and DNAM-1 ligands (MIC-B, ULBP-1, ULBP-2 and CD155): a property not shared
[4]
  IL-6 production following LPS challenge: only NMP suppressed
  TNFα serum levels following LPS challenge: suppressed
[5]
  effect on PI3K/mTOR phosphorylation targets: did not detect any consistent effect

## CN1CCCC1=O [NMP, N-methylpyrrolidone]
Transplanted Vk*MYC MM; Example 1, FIG. 1, C57BL/6, NMP/PEG 1:10 v/v, 10 uL per gram, daily oral, 60 days, control 46 days
  median survival: 60 days
Transplanted Vk*MYC MM; FIG. 8b
  residual polyclonal Ig Lambda (L): better maintained; also recorded: less suppressed
Transplanted Vk*MYC MM; FIG. 8b, NMP/PEG versus PEG alone or PBS
  clonally secreted Ig Kappa (K): Suppression
Transplanted Vk*MYC MM; FIG. 8f, immunodeficient mice lacking T, B or NK cells
  NMP response in Rag2−/−cγ−/− knockout mice: No response
Transplanted Vk*MYC MM; FIG. 8f, same Vk*MYC clone
  NMP response in wild type C57BL/6 mice: only observed in wild type C57BL/6
Transplanted Vk*MYC MM
  efficacy against Vk*MYC MM in vivo (progression): regressed
[1]
  NK cell function / cytotoxicity (K562 lysis): enhancement; also recorded: enhanced
[2]; 10 uM, 3 days
  IL4 production: inhibit
  IL10 production: inhibit
[2]
  cytokine secretion profile (Th): away from a Th-2 profile
PBMC [6]
  direct cytotoxicity (AnnV+7aad+): did not increase to any significant extent; also recorded: not cytotoxic
Myeloma cell line (U266)
  direct cytotoxicity (AnnV+7aad+): did not increase to any significant extent; also recorded: not cytotoxic
PBMC [3]
  proportions of immune cell subtypes (CD4, CD8, NK, regulatory T cells): no significant alteration; also recorded: without altering
CD14+ monocytes; Example 6, FIG. 7, overnight, relative to LPS only control
  secretion of the four inflammatory cytokines (IL-1beta, GM-CSF, IL-6, TNF-alpha): not shown to demonstrate a statistically significant effect
CD14+ monocytes
  IL-6 secretion: Statistically significant inhibition; also recorded: suppressed
  TNFα secretion: Statistically significant inhibition; also recorded: suppressed
U266 cells
  expression of NKG2D and DNAM-1 ligands (MIC-B, ULBP-1, ULBP-2 and CD155): upregulated
[4]
  IL-6 production following LPS challenge: suppressed
  TNFα serum levels following LPS challenge: suppressed
Vk*MYC MM bearing mice
  serum IL-6: reductions
  serum TNFα: reductions
[5]
  effect on PI3K/mTOR phosphorylation targets: did not detect any consistent effect
[7]
  genotoxicity: no genotoxicity
[8]
  carcinogenic effects: no carcinogenic effects
[9]
  no-effect level (for a decrease in pup body weight): 160 mg/kg/day
[10]
  oral LD50: 3600 to 7700 mg/kg
